{
  "source": "patent US6864068B2",
  "about": "“Antifungal proteins” (Syngenta Limited, priority 1995, dated 2005)",
  "key": {"[1]": {"system": "Fusarium culmorum", "assay": "Liquid growth inhibition assay in half strength potato dextrose broth", "format": "cell-based", "conditions": "F culmorum", "method": "Yeast cells transformed with either pTG3828, pMFprepro/Rs AFP2 or PMFpre/RsAFP2 were grown in selective SD medium until a saturated culture was obtained. To assess the antifungal activity of proteins secreted by the yeast cells, the supernatant of the yeast cultures was filtered (sterile 0.22 μm filter) and serially diluted in sterile water. Diluted samples (20 μl) were incubated in microtiter plate wells with 80 μl of half strength potato dextrose broth (Difco) containing spores 10^4 spores/ml) of Fusarium culmorum.\nGrowth of the fungi was monitored by microspectrophotometry as described by Broekaert et al (1990, FEMS Microbiol Lett, 69:55-60). Homogenates of yeast cells were prepared by spinning down 1 ml of a saturated yeast culture, suspending the cells in 200 μl of water, vortexing the cells in the presence of 0.2 g of glass beads (425-600 μm), and clearing the homogenate by centrifugation (1 min, 10000×g). Antifungal activity could only be detected in the culture medium of yeast cells transformed with pMFprepro/RsAFP2, which contained about 2 μg/ml of Rs-AFP2 equivalents. The activity of the homogenate of these cells, as well as that of culture media and cell homogenates of yeast cells transformed with pMFpre/RsAFP2 or pTG3828 transformed yeasts was below the detection limit (about 0.2 μg/ml of Rs-AFP2 equivalents).\nThe supernatant of 100 ml of a saturated culture of yeast transformed with pMFprepro/RsAFP2 (grown on minimal selective SD medium supplemented with 0.5% w/v of casamino acids) was centrifuged (4000 rpm, 10 min), and filtered (0.45 μm) to remove yeast cells and debris. Tris-HC1 (pH9) was added to the supernatant to a final concentration of 50 mM. The sample was loaded at a flow rate of 2 ml/min on an anion exchange chromatography column (Q-Sepharose Fast Flow, 20 ml bed volume, Pharmacia), on-line connected with a disposable reversed-phase C8 silica column (Bond Elut, 500 mg solid phase, Varian, Harbor City, USA). The antifungal activity was not retained on the Q-Sepharose matrix but bound to the C8 silica matrix. […] The latter eluate was dried in a rotating vacuum concentrator, redissolved in 0.5 ml 15% (v/v) acetonitrile containing 0.1% (v/v) TFA, and was loaded on a reversed-phase C2/C18 silica column (Pep-S, 5 μm beads, 0.4×25 cm, Pharmacia connected to a Waters 600 HPLC station pre-equilibriated with 15% acetonitrile containing 0.1% (v/v) TFA. After loading, the column was rinsed with the same buffer until the absorbance reached background level. The column was subsequently eluted with a 15 minute linear gradient from 15% to 50% acetonitrile containing 0.1% TFA at a flow rate of 1 ml/min. The eluate was monitored for proteins by on-line measurement of the absorbance at 280 nm. […] Twenty μl fractions were tested in a liquid growth inhibition assay: 20 μl samples were incubated in microtiter plate wells with 80 μl of half strength potato dextrose broth (Difco) containing 10^4 spores/ml of F culmorum; growth of the fungi was monitored by microspectrophotometry as described by Broekaert et al (1990, FEMS Microbiol Lett, 69: 55-60).\nThe specific antifungal activity of RPC-purified peak A material, as well as that of plant-derivable Rs-AFP2, was determined by measuring the percentage growth inhibition of F culmorum caused by serial dilutions of the protein samples. […]"}, "[2]": {"system": "F culmorum", "assay": "Growth inhibition in SMF with varying CaCl2 or KCl (FIG. 7)", "format": "cell-based", "method": "Their antifungal activity was determined in SMF with increasing Ca^2+ or K^+ concentration and compared with that of plant-derivable wild type Rs-AFP2 (isolated from seed) as well as yeast purified Rs-AFP2. FIG. 7 is a graph of the percentage growth inhibition of F culmorum caused by 10 μg/ml of yeast-purified Rs-AFP2 (SEQ ID NO: 20) (open circles), seed-purified Rs-AFP2 (SEQ ID NO: 77) (closed circles), Rs-AFP2/G9R (SEQ ID NO: 38) (squares) and Rs-AFP2/V39R (SEQ ID NO: 43) (triangles) in a medium consisting of SMF with varying concentrations of CaCl2 (panel A) and KCl (panel B)."}, "[3]": {"system": "Alternaria brassicicola", "assay": "Antifungal activity in three media differing in ionic strength (Table 3)", "format": "cell-based", "conditions": "72 hours", "method": "(§1) The antifungal activity of the G9R and V39R Rs-AFP2 isoforms was also assessed on a set of seven different phytopathogenic fungi in three media differing in ionic strength: SMF−, SMF plus 1 mM CaCl2 and 50 mM KCl, and SMF plus 5 mM CaCl2 and 50 mM KCl. The fungi tested were: Alternaria brassicicola, Ascochyta pisi, Botrytis cinerea, Fusarium culmorum, Nectria haematococca, Phoma betae and Verticillium dahliae."}, "[4]": {"system": "Ascochyta pisi", "assay": "Antifungal activity in three media differing in ionic strength (Table 3)", "format": "cell-based", "conditions": "72 hours", "method": "as §1"}, "[5]": {"system": "Botrytis cinerea", "assay": "Antifungal activity in three media differing in ionic strength (Table 3)", "format": "cell-based", "conditions": "72 hours", "method": "as §1"}, "[6]": {"system": "Fusarium culmorum", "assay": "Antifungal activity in three media differing in ionic strength (Table 3)", "format": "cell-based", "conditions": "96 hours", "method": "as §1"}, "[7]": {"system": "Nectria haematococca", "assay": "Antifungal activity in three media differing in ionic strength (Table 3)", "format": "cell-based", "conditions": "72 hours", "method": "as §1"}, "[8]": {"system": "Phoma betae", "assay": "Antifungal activity in three media differing in ionic strength (Table 3)", "format": "cell-based", "method": "as §1"}, "[9]": {"system": "Verticillium dahliae", "assay": "Antifungal activity in three media differing in ionic strength (Table 3)", "format": "cell-based", "conditions": "96 hours", "method": "as §1"}, "[10]": {"system": "various fungi", "conditions": "cited from earlier work"}},
  "note": "Square brackets hold non-standard residues; d marks the D form. Ends that are not written are not given here. pGlu = O=C1CC[C@@H](C(=O)O)N1",
  "data": [
    {"substance": "Rs-AFP2: plant-derivable wild-type antifungal protein 2 from Raphanus sativus (radish) seeds ([pGlu]KLCQRPSGTWSGVCGNNNACKNQCIRLEKARHGSCNYVFPAHKCICYFPC; cysteine pairing not given here; listed as Raphanus sativus) [reference compound]", "values": [
      {"measurement": "IC50 (concentration required for 50% growth inhibition)", "setting": "[1]; from dose-response curves of serial dilutions", "value": "about 3 μg/ml"},
      {"measurement": "type of inhibition (hyphal morphology)", "setting": "[1]; induction of multiple branches near the tips", "value": "characteristic morphological distortion of the fungal hyphae"},
      {"measurement": "activity in the presence of 100 mM KCl", "setting": "[2]; SMF with 100 mM KCl, FIG. 7, 10 μg/ml", "value": "drastically reduced"},
      {"measurement": "CaCl2 concentration at which fully active", "setting": "[2]; protein 10 μg/ml", "value": "≤ 1.25", "unit": "mM"},
      {"measurement": "growth inhibition in the presence of 5mM CaCl2", "setting": "[2]; protein 10 μg/ml, SMF with 5mM CaCl2", "value": "basically inactive"},
      {"measurement": "IC50 VALUES, A brassicicola, SMF + 1 mM CaCl2/50 mM KCl", "setting": "[3]", "value": ">50", "unit": "µg/mL"},
      {"measurement": "IC50 VALUES, A brassicicola, SMF + 5 mM CaCl2/50 mM KCl", "setting": "[3]", "value": ">100", "unit": "µg/mL"},
      {"measurement": "IC50 VALUES, A brassicicola, SMF", "setting": "[3]; SMF−", "value": 3.2, "unit": "µg/mL"},
      {"measurement": "IC50 VALUES, A pisi, SMF + 1 mM CaCl2/50 mM KCl", "setting": "[4]", "value": ">50", "unit": "µg/mL"},
      {"measurement": "IC50 VALUES, A pisi, SMF + 5 mM CaCl2/50 mM KCl", "setting": "[4]", "value": ">100", "unit": "µg/mL"},
      {"measurement": "IC50 VALUES, A pisi, SMF", "setting": "[4]; SMF−", "value": 1.9, "unit": "µg/mL"},
      {"measurement": "IC50 VALUES, B cinerea, SMF + 1 mM CaCl2/50 mM KCl", "setting": "[5]", "value": ">50", "unit": "µg/mL"},
      {"measurement": "IC50 VALUES, B cinerea, SMF + 5 mM CaCl2/50 mM KCl", "setting": "[5]", "value": ">100", "unit": "µg/mL"},
      {"measurement": "IC50 VALUES, B cinerea, SMF", "setting": "[5]; SMF−", "value": 1.8, "unit": "µg/mL"},
      {"measurement": "IC50 VALUES, F culmorum, SMF + 1 mM CaCl2/50 mM KCl", "setting": "[6]", "value": 4.6, "unit": "µg/mL"},
      {"measurement": "IC50 VALUES, F culmorum, SMF + 5 mM CaCl2/50 mM KCl", "setting": "[6]", "value": 22.0, "unit": "µg/mL"},
      {"measurement": "IC50 VALUES, F culmorum, SMF", "setting": "[6]; SMF−", "value": 2.1, "unit": "µg/mL"},
      {"measurement": "IC50 VALUES, N haematococca, SMF + 1 mM CaCl2/50 mM KCl", "setting": "[7]", "value": 48.0, "unit": "µg/mL"},
      {"measurement": "IC50 VALUES, N haematococca, SMF + 5 mM CaCl2/50 mM KCl", "setting": "[7]", "value": ">100", "unit": "µg/mL"},
      {"measurement": "IC50 VALUES, N haematococca, SMF", "setting": "[7]; SMF−", "value": 2.0, "unit": "µg/mL"},
      {"measurement": "IC50 VALUES, P betae, SMF + 1 mM CaCl2/50 mM KCl", "setting": "[8]; 72 hours", "value": 14.0, "unit": "µg/mL"},
      {"measurement": "IC50 VALUES, P betae, SMF + 5 mM CaCl2/50 mM KCl", "setting": "[8]; 72 hours", "value": 27.0, "unit": "µg/mL"},
      {"measurement": "IC50 VALUES, P betae, SMF", "setting": "[8]; SMF−, 72 hours", "value": 0.9, "unit": "µg/mL"},
      {"measurement": "activity against P betae compared with the G9R and V39R isoforms, in words", "setting": "[8]; Table 3 data", "value": "appeared to be more active"},
      {"measurement": "IC50 VALUES, V dahliae, SMF + 1 mM CaCl2/50 mM KCl", "setting": "[9]", "value": 11.0, "unit": "µg/mL"},
      {"measurement": "IC50 VALUES, V dahliae, SMF + 5 mM CaCl2/50 mM KCl", "setting": "[9]", "value": 50.0, "unit": "µg/mL"},
      {"measurement": "IC50 VALUES, V dahliae, SMF", "setting": "[9]; SMF−", "value": 1.0, "unit": "µg/mL"},
      {"measurement": "activity relative to Rs-AFP1 on various fungi", "setting": "[10]", "value": "two- to thirty-fold more active"},
      {"measurement": "salt-tolerance relative to Rs-AFP1", "setting": "[10]", "value": "increased salt-tolerence"}
    ]}
  ]
}
